In the supplement of paper PMC11061612:

Tests used:
Assay in all cases: combination Emax (second highest fraction inhibited in the dose matrix, 72 h); higher = more inhibition; extreme values may be limits of the assay
A673 (Ewing's Sarcoma) = test system: A673 (Ewing's Sarcoma)
Procedure, shortened: (§1)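 After 24 hours at 37°C and 5% CO2 in 1536-well plates, cells in DMEM/F12 or RPMI plus 10% FBS received two-drug dose matrices for 72 hours. Viability came from CellTiter-Glo 2.0 luminescence and was scaled as inhibition, anchored at 0 by vehicle wells and at 1 by blank wells. Combination Emax is taken as the second-highest inhibition in the matrix, and Bliss excess as the observed combination effect less EA + EB − EA·EB, with EA and EB the single-agent effects.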

[1] = test system: BFTC-909 (Kidney Carcinoma)
Procedure, shortened: as §1

NCI-H2052 (Mesothelioma) = test system: NCI-H2052 (Mesothelioma)
Procedure, shortened: as §1

[2] = test system: OE21 (Esophageal Squamous Cell Carcinoma)
Procedure, shortened: as §1

[3] = test system: HH (T-Cell Non-Hodgkin's Lymphoma)
Procedure, shortened: as §1

[4] = test system: WSU-NHL (B-Cell Non-Hodgkin's Lymphoma)
Procedure, shortened: as §1

[5] = test system: SW1573 (Lung Adenocarcinoma)
Procedure, shortened: as §1

[6] = test system: SNU-449 (Hepatocellular Carcinoma)
Procedure, shortened: as §1

[7] = test system: CAL-33 (Oral Cavity Carcinoma)
Procedure, shortened: as §1

[8] = test system: NCI-H209 (Small Cell Lung Carcinoma)
Procedure, shortened: as §1

[9] = test system: NCI-H1568 (Lung Adenocarcinoma)
Procedure, shortened: as §1

[10] = test system: LNZTA3WT4 (Low Grade Glioma)
Procedure, shortened: as §1

[11] = test system: HuH-7 (Hepatocellular Carcinoma)
Procedure, shortened: as §1

[12] = test system: HuCCT1 (Biliary Tract Carcinoma)
Procedure, shortened: as §1

[13] = test system: SNU-16 (Gastric Carcinoma)
Procedure, shortened: as §1

KS-1 (Glioblastoma) = test system: KS-1 (Glioblastoma)
Procedure, shortened: as §1

[14] = test system: NUGC-4 (Gastric Carcinoma)
Procedure, shortened: as §1

[15] = test system: LS-123 (Colorectal Carcinoma)
Procedure, shortened: as §1

MPP-89 (Mesothelioma) = test system: MPP-89 (Mesothelioma)
Procedure, shortened: as §1

[16] = test system: SW1710 (Bladder Carcinoma)
Procedure, shortened: as §1

Row | Compound | combination Emax (A673 (Ewing's Sarcoma)) | combination Emax [1] | combination Emax (NCI-H2052 (Mesothelioma)) | combination Emax [2] | combination Emax [3] | combination Emax [4] | combination Emax [5] | combination Emax [6] | combination Emax [7] | combination Emax [8] | combination Emax [9] | combination Emax [10] | combination Emax [11] | combination Emax [12] | combination Emax [13] | combination Emax (KS-1 (Glioblastoma)) | combination Emax [14] | combination Emax [15] | combination Emax (MPP-89 (Mesothelioma)) | combination Emax [16]
1 | Cc1cc2ncnn2cc1Nc1ncc2c(n1)n(C1CCOCC1)c(=O)n2C [AZD7648] + CCN(CCO)CCCOc1ccc2c(Nc3cc(CC(=O)Nc4cccc(F)c4)[nH]n3)ncnc2c1 [AZD2811] (first compound max 10 µM, 7x7, partner max 1 µM) | 0.765 | 0.384 | 0.382 | 0.492 | 0.245 | 0.976 | 0.287 | 0.318 | 0.913 | 0.596 | 0.185 | 0.266 | 0.23 | 0.406 | 0.569 | 0.4 | 0.281 | 0.309 | 0.258 | 0.202
2 | Cc1cc2ncnn2cc1Nc1ncc2c(n1)n(C1CCOCC1)c(=O)n2C [AZD7648] + CN(C)CCCOc1ccc(-c2ccc3ncc4c(c3c2)n(C2CCOCC2)c(=O)n4C)cn1 [AZD0156] (first compound max 10 µM, 7x7, partner max 1 µM) | 0.336 | 0.338 | 0.428 | 0.554 | 0.285 | 0.498 | 0.164 | 0.282 | 0.375 | 0.237 | 0.24 | 0.276 | 0.201 | 0.389 | 0.239 | 0.245 | 0.216 | 0.34 | 0.302 | 0.217
3 | Cc1cc2ncnn2cc1Nc1ncc2c(n1)n(C1CCOCC1)c(=O)n2C [AZD7648] + C[C@@H]1COCCN1C2=NC(=NC(=C2)C3(CC3)[S@](=N)(=O)C)C4=C5C=CNC5=NC=C4 [AZD6738] (first compound max 10 µM, 7x7, partner max 10 µM) | 0.809 | 0.835 | 0.413 | 0.74 | 0.337 | 1 | 0.229 | 0.279 | 0.793 | 0.691 | 0.499 | 0.766 | 0.215 | 0.735 | 0.984 | 0.595 | 0.509 | 0.619 | 0.564 | 0.503
4 | Cc1cc2ncnn2cc1Nc1ncc2c(n1)n(C1CCOCC1)c(=O)n2C [AZD7648] + O=C(c1cc(Cc2n[nH]c(=O)c3ccccc23)ccc1F)N1CCN(C(=O)C2CC2)CC1 [Olaparib] (first compound max 10 µM, 7x7, partner max 10 µM) | 0.585 | 0.305 | 0.308 | 0.354 | 0.22 | 0.71 | 0.243 | 0.0839 | 0.243 | 0.917 | 0.212 | 0.0958 | 0.198 | 0.185 | 0.463 | 0.162 | 0.202 | 0.297 | 0.28 | 0.0781
5 | Cc1nc(Nc2ncc(C(=O)Nc3c(C)cccc3Cl)s2)cc(N2CCN(CCO)CC2)n1 [Dasatinib] + CC(=O)Nc1cccc(-n2c(=O)n(C3CC3)c(=O)c3c(Nc4ccc(I)cc4F)n(C)c(=O)c(C)c32)c1 [Trametinib] (first compound max 2 µM, 7x7, partner max 1 µM) | 0.237 | 0.35 | 0.558 | 0.723 | 0.216 | 0.962 | 0.18 | 0.691 | 0.629 | 0.124 | 0.668 | 0.329 | 0.662 | 0.772 | 0.532 | 0.641 | 0.431 | 0.928 | 0.851 | 0.77
6 | COc1cc2ncnc(Nc3ccc(F)c(Cl)c3)c2cc1OCCCN1CCOCC1 [Gefitinib] + CC(C)n1c(=O)n(C)c2cnc3cc(F)c(-c4ccc(OCCCN5CCCCC5)nc4)cc3c21 [AZD1390] (first compound max 10 µM, 7x7, partner max 0.3 µM) | 0.162 | 0.184 | 0.137 | 0.499 | 0.221 | 0.337 | 0 | 0.249 | 0.42 | 0.384 | 0.318 | 0.129 | 0.114 | 0.389 | 0.36 | 0.0732 | 0.481 | 0.226 | 0.112 | 0.228
7 | COc1cc2c(cc1OCCCCCOc1cc3c(cc1OC)C(=O)N1C=C(C)C[C@H]1C=N3)N=C[C@@H]1CC(C)=CN1C2=O [SG3199] + O=C(c1cc(Cc2n[nH]c(=O)c3ccccc23)ccc1F)N1CCN(C(=O)C2CC2)CC1 [Olaparib] (first compound max 0.001 µM, 7x7, partner max 10 µM) | 0.563 | 0.0989 | 0.0807 | 0.133 | 0 | 0.763 | 0.102 | 0.0573 | 0.143 | 0.913 | 0.191 | 0.0132 | 0.12 | 0.0094 | 0.363 | 0.127 | 0.219 | 0.187 | 0.0885 | 0.112
8 | C[C@@H](c1ccc2nccn2c1)n1nnc2ncc(-c3cnn(C)c3)nc21 [Savolitinib] + CC1(C)CCC(CN2CCN(c3ccc(C(=O)NS(=O)(=O)c4ccc(NCC5CCOCC5)c([N+](=O)[O-])c4)c(Oc4cnc5[nH]ccc5c4)c3)CC2)=C(c2ccc(Cl)cc2)C1 [Venetoclax] (first compound max 1 µM, 7x7, partner max 1 µM) | 0.309 | 0.242 | 0.121 | 0.0581 | 0.134 | 0.315 | 0.052 | 0.157 | 0.154 | 0.373 | 0.0767 | 0.162 | 0.15 | 0.107 | 0.129 | 0.152 | 0.167 | 0.148 | 0.261 | 0.0997
9 | C[C@@H](c1ccc2nccn2c1)n1nnc2ncc(-c3cnn(C)c3)nc21 [Savolitinib] + Cc1c2c(nn1C)CSCc1cc(n(C)n1)CSc1cc(c3ccccc3c1)OCCCc1c(C(=O)O)n(C)c3c-2c(Cl)ccc13 [AZD5991] (first compound max 1 µM, 7x7, partner max 1 µM) | 0.302 | 0.179 | 0.185 | 0.355 | 0.879 | 0.743 | 0.133 | 0.154 | 0.181 | 0.323 | 0.147 | 0.222 | 0.207 | 0.117 | 0.947 | 0.132 | 0.221 | 0.211 | 0.237 | 0.105
